Measured values as given in patent US20210322415A1 (priority 2016, published 2021).

Tests used:
[1] = system: OV2022 tumour (ovarian cancer) xenografts; test: OV2022 patient derived tumour xenograft efficacy study; assay type: in vivo; details: 3 mg/kg, 5 days on 2 days off vs daily, alone or with 100 mg/kg olaparib
c-kit = c-kit (Homo sapiens, UniProt P10721); test: Target cover in pre-clinical models: modelled mean free plasma concentration vs cellular IC50; assay type: in vivo; details: doses up to 2.4 mg/kg
Procedure: 4.8 mg/kg (FIGS. 1M-1P) following dosing zs regimens of once daily continuous (QDCont), once daily 5 days on 2 days off (QD5on2off), or once daily 4 days (QD4on3off). […] The reduction in PK is shown following the last dose of drug (at either 4 or 5 days dosing), and overlaid on each plot (horizontal lines) are the cellular IC50 values generated in vitro for inhibition of pVEGFR-1,-2, pKit, pPDGFRα and pPDGFRβ, as indicated. For the plots exemplifying VEGFR and Kit cover, R-P stands for receptor phosphorylation in a cell based assay; C-P stands for cell proliferation; for VEGFR plots, T-G stands for tubule growth in an endothelial-fibroblast co-culture assay. […] For the graphs depicting PDGFRα and β cover, inhibition of PDGFRα and PDGFRβ phosphorylation and PDGFBB or PDGFAA driven proliferation are shown together with the relevant cell lines.

[2] = system: SW620, Calu6 and A498 tumor xenografts; test: Tumor xenograft efficacy studies with intermittent dosing; assay type: in vivo, nude or scid mice; details: for anti-tumor effects: oral once daily
Text: Tumors were selected and randomized into groups when tumor volume reached approximately 0.2 cm^3. […] Groups of 10 animals were used, however in the final cycle cohorts of 5 animals were removed in between dosing group to support assessment of pharmacodynamic biomarkers in the tumor.

tumors = details: reported in literature; cited from earlier work

Chain of c-kit (P10721 26-976): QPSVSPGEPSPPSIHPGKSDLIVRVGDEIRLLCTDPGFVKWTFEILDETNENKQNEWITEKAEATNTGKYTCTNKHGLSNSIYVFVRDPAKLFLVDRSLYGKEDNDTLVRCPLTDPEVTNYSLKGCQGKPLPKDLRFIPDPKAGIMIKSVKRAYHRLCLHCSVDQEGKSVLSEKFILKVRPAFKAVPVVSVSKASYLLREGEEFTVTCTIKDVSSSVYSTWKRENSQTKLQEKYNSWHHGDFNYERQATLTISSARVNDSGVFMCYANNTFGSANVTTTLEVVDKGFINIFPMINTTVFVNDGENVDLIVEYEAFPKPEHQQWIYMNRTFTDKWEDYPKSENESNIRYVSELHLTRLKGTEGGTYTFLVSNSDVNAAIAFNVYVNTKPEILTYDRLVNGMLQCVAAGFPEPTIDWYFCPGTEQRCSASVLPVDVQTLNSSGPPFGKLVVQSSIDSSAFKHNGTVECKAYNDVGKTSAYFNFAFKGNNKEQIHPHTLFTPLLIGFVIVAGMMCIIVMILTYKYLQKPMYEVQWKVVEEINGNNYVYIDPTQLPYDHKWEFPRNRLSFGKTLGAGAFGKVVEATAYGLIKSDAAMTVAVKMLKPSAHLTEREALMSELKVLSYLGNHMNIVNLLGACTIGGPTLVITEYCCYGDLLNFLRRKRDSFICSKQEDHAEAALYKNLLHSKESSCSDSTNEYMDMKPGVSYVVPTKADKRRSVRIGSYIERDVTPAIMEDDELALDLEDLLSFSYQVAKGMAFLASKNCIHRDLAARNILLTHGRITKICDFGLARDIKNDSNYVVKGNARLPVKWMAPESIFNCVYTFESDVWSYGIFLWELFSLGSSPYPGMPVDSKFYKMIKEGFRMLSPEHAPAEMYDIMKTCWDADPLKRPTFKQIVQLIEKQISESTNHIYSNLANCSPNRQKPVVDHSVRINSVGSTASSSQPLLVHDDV

SMILES: COc1cc2c(Oc3ccc4[nH]c(C)cc4c3F)ncnc2cc1OCCCN1CCCC1.O=C(O)/C=C\C(=O)O [cediranib, 4-[(4-fluoro-2-methyl-1H-indol-5-yl)oxy]-6-methoxy-7-[3-(pyrrolidin-1-yl)propoxy]quinazoline maleate]
- efficacy of intermittent schedule versus constant dose [1]: equivalent efficacy
- target cover versus c-kit (c-kit): achieving target cover
- efficacy (mean tumor volume versus time) ([2]; 1.5 mg/kg, 4/3 schedule, three 7-day cycles (FIG. 5)): in 2 out of the three models intermittent dosing of cediranib at 1.5 mg/kg on a 4/3 schedule maintains efficacy
- efficacy (mean tumor volume versus time) ([2]; 1.5 mg/kg, 5/2 schedule, three 7-day cycles (FIG. 3)): maintains efficacy
- efficacy (mean tumor volume versus time) ([2]; 3 mg/kg, 4/3 schedule, three 7-day cycles (FIG. 6)): maintains efficacy
- efficacy (mean tumor volume versus time) ([2]; 3 mg/kg, 5/2 schedule, three 7-day cycles (FIG. 4)): maintains efficacy
- anti-tumor effects ([2]; 4 days on 3 days off schedule): maintains anti-tumor effects albeit at not as effectively as the 5/2 schedule
- anti-tumor effects ([2]; 5 days on 2 days off schedule, monotherapy): maintains anti-tumor effects
- anti-tumor activity, intermittent compared to daily schedule ([2]; preclinical in vivo data, 5 days on/2 days off vs daily): no difference in anti-tumor activity
- tumor growth in a range of preclinical models (tumors): inhibit the growth of tumors in a dose-dependent manner
